# Source: patent US20100004234A1, “SPECIFIC KINASE INHIBITORS” (Kosan Biosciences Incorporated, priority 2004, published 2010)
# Read-outs that look alike come from different tables or passages of the source.
# Assays:
# [1] = tested on: COLO829 (Human melanoma, B-Raf V599E); test: Cell proliferation assay (Cell Titer Glo); format: cell-based
# Method: (§1) In one illustrative method, cells are treated with various concentrations of the inhibitor in 96 well plates, incubated at 37° C./5% CO2 for three days, and analyzed using the Cell Titer Glo kit (Promega).
# (§2) COLO829 is a human melanoma cell line. HT29 is a human colon cancer cell line. Both cell lines have a V600E B-Raf mutation. SKOV3 is an ovarian cancer cell line having wild-type B-Raf. EKR2 (extra-cellular signal regulated kinase 2) is a kinase in the Ras/B-Raf MAP kinase cascade pathway.
# [2] = tested on: HT29 (Human colon, B-Raf V599E); test: Cell proliferation assay (Cell Titer Glo); format: cell-based
# Method: as §1, §2
# [3] = tested on: A375 (Human melanoma, B-Raf V599E); test: Cell proliferation assay (Cell Titer Glo); format: cell-based
# Method: as §1
# [4] = tested on: A549 (NSCLC, B-Raf wild-type); test: Cell proliferation assay (Cell Titer Glo); format: cell-based
# Method: as §1
# [5] = tested on: DU4475 (Human breast, B-Raf V599E); test: Cell proliferation assay (Cell Titer Glo); format: cell-based
# Method: as §1
# [6] = tested on: WM266-4 (Human melanoma, B-Raf V599D); test: Cell proliferation assay (Cell Titer Glo); format: cell-based
# Method: as §1
# MEK1 [7] = target: T1, MEK1 (Homo sapiens, UniProt Q02750); test: Time-dependent kinase inhibition kinetics (pre-incubation, [32P]ATP filter binding); format: biochemical
# Method: Typically, one measures the increase in inhibition of protein kinase activity in the presence of inhibitor over time. In one method, aliquots of a “pre-incubation” reaction mixture containing enzyme and inhibitor are assayed for activity (initial velocities) over time; increased inhibition or decreased initial velocities will be observed over time as the Michael adduct forms (Walsh, C, Enzyme Reaction Mechanisms, W.H. Freeman & Co., 1979, pp 86-94). In a second method, the time dependent loss of activity is measured as “progress curves” that measure and analyze product formed (e.g. ADP) versus time (Morrison & Walsh, Adv. Enzymol Relat Areas Mol. Biol. 1988, 61, 201-301). In either case, the time dependent inactivation can be dampened by the presence of a competing substrate, in this case ATP.
# MEK1 and many other protein kinases that can be targets of the compounds useful in the methods of the invention can be obtained commercially (Invitrogen; Carlsbad, Calif.) or prepared using standard molecular biology techniques. After activation by phosphorylation, they are assayed for their ability to phosphorylate a target kinase or surrogate substrate. For example, MEK1 can be assayed in a mixture containing MEK1 (30 nM) and ERK1 (2 μM), [γ-^32P]ATP (10 uM) and MgCl2 in Mops buffer pH 7.6. Phosphorylation can be measured by isolating [γ-^32P]-phosphorylated ERK1 on phosphocellulose paper, and counting radioactive product. Alternatively, a coupled enzyme system may be used in which a product of the kinase reaction, such as ADP, is measured by analysis with a secondary system that converts that product (e.g. ADP) to an easily measurable entity (e.g. NADH); often, such coupled systems can be measured by convenient spectrophotometry assays.
# To measure time-dependent inhibition using the “pre-incubation method”, MEK1 (or other kinase) is incubated with varying amounts of the lactone inhibitor; […]. Aliquots are removed at various times, added to a solution containing substrates [γ-^32P]ATP, ERK1 (or other substrate), and the other components of the reaction, and initial rates are determined as a measure of remaining enzyme activity.
# For covalent inhibitors, plots of log (activity) versus time provide apparent first-order rate constants (kobsd) of enzyme activity loss. If these assays are performed at varying concentrations of inhibitor, a series of first-order plots is obtained and kobsd obtained at each inhibitor concentration. To measure time-dependent inhibition using the “progress-curve method” (see references cited above and Kuzmic et al., Methods Enzymol 2004; 383: 366-81), ERK (or other kinase) is treated with varying amounts of the lactone inhibitor, and the formation of ADP is measured continuously by a coupled assay. […] Such molecules may be competitive inhibitors but should not show time-dependent inactivation.
# Those of skill in the art will recognize that within the set of compounds useful in the methods of the invention, significant variability in specificity can be achieved, allowing one to identify optimal compounds for different applications. Inhibition progress curve analysis was performed using continuous, colorimetric, or fluorimetric assays. All experiments were done at 1 mM ATP, with the exception of KDR (at 5 mM ATP).
# (§3) MEK1 assays were performed using pre-incubation experiments with radioactive [^32P]ATP and filter binding of product. All other kinases were analyzed using progress curve analysis from a continuous spectrophotometric assay.
# ERK2 [8] = target: ERK2 (UniProt P28482); format: biochemical; set-up: Ki; other: ERK2; 1 mM ATP; kinact; T1/2; kinact/Ki; "the target Cys 172 residue; conditions: ERK2
# Method: (§4) In either case, the time dependent inactivation can be dampened by the presence of a competing substrate, in this case ATP.
# (§5) For covalent inhibitors, plots of log (activity) versus time provide apparent first-order rate constants (kobsd) of enzyme activity loss. If these assays are performed at varying concentrations of inhibitor, a series of first-order plots is obtained and kobsd obtained at each inhibitor concentration. […] Such molecules may be competitive inhibitors but should not show time-dependent inactivation.
# (§6) Inhibition progress curve analysis was performed using continuous, colorimetric, or fluorimetric assays. All experiments were done at 1 mM ATP, with the exception of KDR (at 5 mM ATP).
# as §3
# rat MEK1 = rat MEK1 (Rattus norvegicus, UniProt Q01986); conditions: cited from earlier work
# Chain of rat MEK1 (Q01986 whole entry): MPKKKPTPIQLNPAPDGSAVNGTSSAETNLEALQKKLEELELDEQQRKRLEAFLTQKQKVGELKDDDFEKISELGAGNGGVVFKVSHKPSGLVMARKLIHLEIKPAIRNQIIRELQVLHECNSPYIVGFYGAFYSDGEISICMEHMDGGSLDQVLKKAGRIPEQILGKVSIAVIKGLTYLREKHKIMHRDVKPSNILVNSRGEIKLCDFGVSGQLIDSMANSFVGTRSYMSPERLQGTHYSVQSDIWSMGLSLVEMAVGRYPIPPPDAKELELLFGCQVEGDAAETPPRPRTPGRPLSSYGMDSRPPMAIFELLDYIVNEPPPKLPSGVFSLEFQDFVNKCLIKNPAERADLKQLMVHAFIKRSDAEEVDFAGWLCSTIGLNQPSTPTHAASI
# [9] = tested on: EOL-1 (Human leukemia FLP1L1-PDGFRA); test: Cell proliferation assay (Cell Titer Glo); format: cell-based
# Method: as §1
# [10] = tested on: MV4-11 (Human leukemia Flt3-ITD); test: Cell proliferation assay (Cell Titer Glo); format: cell-based
# Method: as §1
# [11] = tested on: P815 (Mouse mastocytoma, KIT D814Y); test: Cell proliferation assay (Cell Titer Glo); format: cell-based
# Method: as §1
# [12] = tested on: SKOV3 (ovarian cancer cell line, wild-type B-Raf); test: Cell proliferation assay; format: cell-based; conditions: Homo sapiens, SK-OV-3; Table 7; SKOV3 ovarian cancer, wild-type B-Raf; read-out: Cell Line IC50 SKOV3
# Method: as §1, §2
# ERK2 [13] = target: ERK2 (UniProt P28482); format: biochemical; set-up: "the target Cys 172 residue
# Method: as §4, §5, §6, §3
# MEK1 [14] = target: T1, MEK1; conditions: cited from earlier work
# PKA, PKC or Raf = conditions: cited from earlier work
# panel of 120 kinases = conditions: panel of some 120 kinases; cited from earlier work
# [15] = tested on: ASZ001 (Basal cell carcinoma); test: Cell proliferation assay (Cell Titer Glo); format: cell-based
# Method: as §1
# BCCs in Ptc+/− mice = conditions: topical; cited from earlier work
# [16] = tested on: ERK1/2 activation in human T cells; conditions: tested at 0.3 to 3 μM; cited from earlier work
# [17] = HT29 (Human colon, B-Raf V599E), Tables 1 and 4, read-out: Kinase Inhibitor IC50
# [18] = A375 (Human melanoma, B-Raf V599E), Tables 1 and 4, read-out: Kinase Inhibitor IC50
# [19] = A549 (NSCLC, B-Raf wild-type), Tables 1 and 4, read-out: Kinase Inhibitor IC50
# [20] = DU4475 (Human breast, B-Raf V599E), Tables 1 and 4, read-out: Kinase Inhibitor IC50
# [21] = WM266-4 (Human melanoma, B-Raf V599D), Tables 1 and 4, read-out: Kinase Inhibitor IC50
# [22] = COLO-829, Table 7, COLO829 human melanoma, V600E B-Raf, read-out: Cell Line IC50 COLO829
# [23] = HT-29, Table 7, HT29 human colon cancer, V600E B-Raf, read-out: Cell Line IC50 HT29
compound,measurement,setting,value
"5,6-Dihydrohypothemycin",IC50,"[1]; COLO829 (Human melanoma, B-Raf V599E), Tables 1 and 4, read-out: Kinase Inhibitor IC50",3.7 µM
same,IC50,[2]; [17],15 µM
same,IC50,[3]; [18],> 50 µM
same,IC50,[4]; [19],107 µM
same,IC50,[5]; [20],46 µM
same,IC50,[6]; [21],15 µM
same,kinact/Ki,MEK1 [7],None
same,Ki,MEK1 [7]; 1 mM ATP,3000 nM
same,kinact,MEK1 [7]; 1 mM ATP,None
same,kinact/Ki,ERK2 [8],None
same,kinact,ERK2 [8]; 1 mM ATP,None
same,Ki,"ERK2 [8]; 1 mM ATP, read-out: Ki",28 µM
COc1cc(O)c2c(c1)/C=C/C[C@H](O)[C@H](O)C(=O)/C=C\C[C@H](C)OC2=O [(5Z)-7-oxozeaneol],IC50,rat MEK1,411 nM
"CNC(=O)c1cc(Oc2ccc(NC(=O)Nc3ccc(Cl)c(C(F)(F)F)c3)cc2)ccn1 [BAY 43-9006, Sorafenib]",GI50,"[1]; Homo sapiens, COLO-829",6 µM
same,IC50,"[1]; Homo sapiens, COLO-829, read-out: Kinase Inhibitor IC50",6 µM
same,IC50,"[2]; Homo sapiens, HT-29, read-out: Kinase Inhibitor IC50",4.7 µM
same,IC50,"[3]; Homo sapiens, A-375, read-out: Kinase Inhibitor IC50",4.3 µM
same,IC50,"[4]; Homo sapiens, A549, read-out: Kinase Inhibitor IC50",5.5 µM
same,IC50,"[5]; Homo sapiens, DU-4475, read-out: Kinase Inhibitor IC50",3.6 µM
same,IC50,"[9]; Homo sapiens, EOL1, read-out: Kinase Inhibitor IC50",0.23 nM
same,IC50,"[10]; Homo sapiens, MV4-11, read-out: Kinase Inhibitor IC50",2.3 nM
same,GI50,"[11]; Mus musculus, P815",310 nM
same,IC50,"[11]; Mus musculus, P815, read-out: Kinase Inhibitor IC50",310 nM
same,IC50,"[6]; Homo sapiens, WM 266-4, read-out: Kinase Inhibitor IC50",5.4 µM
"C[C@H]1C/C=C\C(=O)[C@@H](O)[C@@H](O)C[C@H]2O[C@@H]2c2cc(O)cc(O)c2C(=O)O1 [Compound II, 4-O-desmethylhypothemycin]",IC50,[1]; [22],0.038 µM
same,IC50,[2]; [23],0.1 µM
same,IC50,[12],1.8 µM
same,ERK2 Inhibition kinact.,ERK2 [13],3.3 ± 0.4 × 10^−3 sec^−1
same,Ki,ERK2 [13]; Table 7; read-out: ERK2 Inhibition Ki,2200 ± 400 nM
"COc1cc(O)c2c(c1)CCC[C@H](O)[C@H](O)C(=O)/C=C\C[C@H](C)OC2=O [L-783,277]",reduction of the IC50 value for MEK1 by pre-incubation,MEK1 [14]; 60 min. pre-incubation,10 fold
same,IC50,MEK1 [14]; MEK1,4 nM
same,"inhibition of PKA, PKC or Raf","PKA, PKC or Raf",not
COc1cccc(-c2cc(=O)c3ccccc3o2)c1N [PD 98059],IC50,[2]; [17],5.5 µM
same,IC50,[3]; [18],43 µM
same,IC50,[4]; [19],48 µM
same,IC50,[5]; [20],56 µM
same,IC50,[6]; [21],21 µM
CCN(CC)CCNC(=O)c1c(C)[nH]c(/C=C2\C(=O)Nc3ccc(F)cc32)c1C [SU11248],IC50,"[1]; COLO-829, COLO829 (Human melanoma, B-Raf V599E), Tables 1 and 4, read-out: Kinase Inhibitor IC50",7.1 µM
same,GI50,"[1]; Homo sapiens, COLO-829, melanoma cell line COLO829, read-out: GI50",7.1 µM
same,IC50,"[2]; HT-29, HT29 (Human colon, B-Raf V599E), Tables 1 and 4, read-out: Kinase Inhibitor IC50",4.2 µM
same,IC50,"[3]; A-375, A375 (Human melanoma, B-Raf V599E), Tables 1 and 4, read-out: Kinase Inhibitor IC50",5.4 µM
same,IC50,"[5]; DU-4475, DU4475 (Human breast, B-Raf V599E), Tables 1 and 4, read-out: Kinase Inhibitor IC50",4 µM
same,IC50,"[9]; EOL1, EOL-1 (Human leukemia FLP1L1-PDGFRA), read-out: Kinase Inhibitor IC50",1.7 nM
same,GI50,"[10]; Homo sapiens, MV4-11, AML (FLT3 ITD) cell line MV-4-11, read-out: GI50",12 nM
same,IC50,"[10]; MV4-11 (Human leukemia Flt3-ITD), read-out: Kinase Inhibitor IC50",10 nM
same,IC50,"[11]; P815 (Mouse mastocytoma, KIT D814Y), read-out: Kinase Inhibitor IC50",320 nM
same,GI50,"[11]; mouse mastocytoma cell line P815, constitutively active cKIT (D814Y), read-out: GI50",320 nM
same,IC50,"[6]; WM 266-4, WM266-4 (Human melanoma, B-Raf V599D), Tables 1 and 4, read-out: Kinase Inhibitor IC50",8.2 µM
same,number of kinases inhibited,panel of 120 kinases,~79
CCOC(=O)c1ccc(C#Cc2ccc3c(c2)C(C)(C)CCS3)nc1 [Tazarotene],IC50,"[15]; ASZ001 (Basal cell carcinoma), read-out: Kinase Inhibitor IC50",10 µM
same,IC50,"[15]; BCC cell line ASZ001 in culture, read-out: IC50",~10 µM
same,inhibition of development of BCCs,BCCs in Ptc+/− mice,> 85%
C[C@H]1C/C=C\C(=O)[C@@H](O)[C@@H](O)C[C@H]2O[C@@H]2c2cc(OCC3CCCN(C)C3)cc(O)c2C(=O)O1 (stereo partly shown) [V],IC50,[1]; [22],0.079 µM
same,IC50,[2]; [23],0.6 µM
same,IC50,[12],15 µM
same,ERK2 Inhibition kinact.,ERK2 [13]; Table 7,1 ± 0.1 × 10^−3 sec^−1
same,Ki,ERK2 [13]; read-out: ERK2 Inhibition Ki; Table 7,940 ± 580 nM
C[C@H]1CCCC(=O)CCC/C=C/c2cc(O)cc(O)c2C(=O)O1 [zearalenone],inhibition of the activation of ERK1/2,[16],not
